Laboratory results from patent US20240384268A1, “Oligonucleotides” (Hudson Institute of Medical Research, priority 2021, published 2024).
In the oligonucleotide strings, read from the 5' end, every base follows the letter of its sugar. An asterisk marks phosphorothioate; unmarked linkages are phosphodiester. Other units and linkages are bracketed, terminal groups are in braces. A string of capitals states the bases alone. d = 2'-deoxy (DNA); m = 2'-O-methyl

Molecular target: T1, TLR8 (Homo sapiens, UniProt Q9NR97)
T1 sequence (Q9NR97 27-1041): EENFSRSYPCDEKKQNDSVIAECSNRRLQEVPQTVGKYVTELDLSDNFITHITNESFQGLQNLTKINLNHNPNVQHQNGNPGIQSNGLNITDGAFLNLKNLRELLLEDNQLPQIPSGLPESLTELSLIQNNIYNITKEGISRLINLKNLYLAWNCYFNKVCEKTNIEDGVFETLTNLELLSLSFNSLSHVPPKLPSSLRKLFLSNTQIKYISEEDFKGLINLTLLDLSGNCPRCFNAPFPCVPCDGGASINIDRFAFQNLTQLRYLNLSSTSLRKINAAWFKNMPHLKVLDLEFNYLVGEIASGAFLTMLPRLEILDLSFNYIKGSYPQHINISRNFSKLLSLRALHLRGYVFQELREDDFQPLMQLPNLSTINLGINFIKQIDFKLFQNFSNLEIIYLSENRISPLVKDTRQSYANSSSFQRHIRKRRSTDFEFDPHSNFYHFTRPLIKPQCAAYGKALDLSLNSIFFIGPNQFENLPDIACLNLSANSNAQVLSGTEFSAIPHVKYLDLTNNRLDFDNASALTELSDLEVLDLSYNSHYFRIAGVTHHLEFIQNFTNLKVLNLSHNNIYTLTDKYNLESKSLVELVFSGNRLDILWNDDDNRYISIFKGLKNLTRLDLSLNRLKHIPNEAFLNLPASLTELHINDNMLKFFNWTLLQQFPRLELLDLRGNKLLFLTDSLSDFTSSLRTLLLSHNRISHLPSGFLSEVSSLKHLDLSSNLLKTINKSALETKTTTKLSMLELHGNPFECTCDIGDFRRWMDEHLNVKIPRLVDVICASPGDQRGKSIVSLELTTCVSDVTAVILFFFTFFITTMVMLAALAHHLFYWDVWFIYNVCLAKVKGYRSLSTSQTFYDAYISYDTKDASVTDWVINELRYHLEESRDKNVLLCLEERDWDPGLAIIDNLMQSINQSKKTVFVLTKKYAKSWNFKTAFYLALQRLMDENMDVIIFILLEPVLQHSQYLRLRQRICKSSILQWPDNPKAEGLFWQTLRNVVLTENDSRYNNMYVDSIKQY
Assay: HEK-TLR8 NF-κB-luciferase reporter, R848 or Motolimod stimulation (potentiation or inhibition)
Format: cell-based
Parameters: expressed in transfected cells; host or cells: 293XLhTLR8 (HEK293)
Conditions: for TLR8 100 nM (averaged NF-κB-Luciferase level relative to R848 condition, fold increase): ASO 100 nM; for TLR8 100 nM (averaged NF-κB-Luciferase level relative to R848 condition, fold increase) / TLR8 500 nM (averaged NF-κB-Luciferase level relative to R848 condition, fold increase): relative to R848 only; for TLR8 500 nM (averaged NF-κB-Luciferase level relative to R848 condition, fold increase): ASO 500 nM; for TLR8-500 nM: averaged NF-κB-Luciferase relative to R848: 500 nM ASO, fold increase relative to R848 without ASO (Alharbi et al., 2020)

Substance	TLR8 100 nM (averaged NF-κB-Luciferase level relative to R848 condition, fold increase)	TLR8 500 nM (averaged NF-κB-Luciferase level relative to R848 condition, fold increase)	TLR8-500 nM: averaged NF-κB-Luciferase relative to R848 (HEK-TLR8)	TLR8 potentiation of R848 sensing, 20-mer ASOs (in words) (HEK-TLR8, 500 nM ASO ~30 min, R848 overnight)
TACTTTCCGAGGTGTC (antisense; LNA-modified, pattern not given here) [CAMSAP1-1739 LNA KL]	0.417	1.585		
CCACTTGGCAGACCAT (antisense; LNA-modified, pattern not given here) [CTNN2B-1575 LNA V1]	0.684	1.213		
mA*mG*mU*mC*mU*C*C*A*T*G*T*C*C*C*A*mG*mG*mC*mC*mU (mA*mG*mU*mC*mU*dC*dC*dA*dT*dG*dT*dC*dC*dC*dA*mG*mG*mC*mC*mU; antisense) [[CDKN2B-AS1]2232]			2.28 fold	
mA*mA*mA*mG*mC*A*G*T*C*T*C*C*A*T*G*mU*mC*mC*mC*mA (mA*mA*mA*mG*mC*dA*dG*dT*dC*dT*dC*dC*dA*dT*dG*mU*mC*mC*mC*mA; antisense) [[CDKN2B-AS1]2237]			3.38 fold	
TGACAAAGATTCACTG (antisense; LNA-modified, pattern not given here) [HPRT LNA-1353 KL]	0.633	1.756		
mG*mC*mA*mG*mU*C*T*C*C*A*T*G*T*C*C*mC*mA*mG*mG*mC (GCAGUCTCCATGTCCCAGGC; antisense; sugars from the 5' end m5 d10 m5, all phosphorothioate, methylation of C not given here) [[CDKN2B-AS1]2234]			2.25 fold	weak potentiator of TLR8
GAGGTCTTGGCTTCGT (antisense; LNA-modified, pattern not given here) [MB21D1-525 LNA V1]	0.574	0.642		
TGCTCCTCGGTCTCCC (antisense; LNA-modified, pattern not given here) [CAMSAP1-1850 LNA V1]	1.097	4.771		
GTGATGGCCTCCCATC (antisense; LNA-modified, pattern not given here) [HPRT LNA-333 V1]	0.517	1.112		
CCTCCCATCTCCTTCA (antisense; LNA-modified, pattern not given here) [HPRT LNA-326 V1]	1.469	6.759		
GGTCTTGGCTTCGTGG (antisense; LNA-modified, pattern not given here) [MB21D1-523 LNA V1]	0.616	1.386		
GGAGGTCTTGGCTTCG (antisense; LNA-modified, pattern not given here) [MB21D1-526 LNA V1]	0.575	0.882		
CTTGGCTTCGTGGAGC (antisense; LNA-modified, pattern not given here) [MB21D1-520 LNA V1]	0.458	0.594		
TGGTGGCCACCCATCT (antisense; LNA-modified, pattern not given here) [CTNN2B-2479 LNA V1]	0.464	0.604		
AGATTTCAGAGCAGCT (antisense; LNA-modified, pattern not given here) [EGFR-4885 LNA KL]	0.401	0.770		
CATCCACCACGTCGTC (antisense; LNA-modified, pattern not given here) [EGFR-3266 LNA V1]	0.778	2.417		
ATCTGGCAGCCCATCA (antisense; LNA-modified, pattern not given here) [CTNN2B-2516 LNA V1]	0.808	2.628		
GCACACTTCGTACCCA (antisense; LNA-modified, pattern not given here) [CAMSAP1-4915 LNA V1]	0.319	1.091		
ATGTGATGGCCTCCCA (antisense; LNA-modified, pattern not given here) [HPRT LNA-335 V1]	0.637	1.840		
mA*mU*mU*mU*mC*C*A*C*A*T*G*C*C*C*A*mG*mU*mG*mU*mU (AUUUCCACATGCCCAGUGUU; antisense; sugars from the 5' end m5 d10 m5, all phosphorothioate, methylation of C not given here) [[CDKN2B-AS1]626]			4.09 fold	
GTCTTCATCGGCCCTG (antisense; LNA-modified, pattern not given here) [CAMSAP1-2113 LNA V1]	0.664	2.086		
TCGTGGGGTCCTTTTC (antisense; LNA-modified, pattern not given here) [HPRT LNA-660 V1]	0.778	2.966		
mG*mU*mC*mU*mC*C*A*T*G*T*C*C*C*A*G*mG*mC*mC*mU*mC (mG*mU*mC*mU*mC*dC*dA*dT*dG*dT*dC*dC*dC*dA*dG*mG*mC*mC*mU*mC) [[CDKN2B;AS1]2231]			1.25 fold	
TGTCTGGAAGCTTCCT (antisense; LNA-modified, pattern not given here) [CTNN2B-808 LNA V1]	0.600	0.871		
GGCTCGGCTTGCCTAC (antisense; LNA-modified, pattern not given here) [CAMSAP1-5594 LNA V1]	0.374	0.706		
ACTTCGTGGGGTCCTT (antisense; LNA-modified, pattern not given here) [HPRT LNA-663 V1]	0.820	3.672		
CCAGCAGGTCAGCAAA (antisense; LNA-modified, pattern not given here) [HPRT LNA-388 KL]	0.412	1.499		
mC*mA*mG*mU*mG*T*T*T*T*T*A*A*T*T*T*mU*mG*mU*mA*mG (mC*mA*mG*mU*mG*dT*dT*dT*dT*dT*dA*dA*dT*dT*dT*mU*mG*mU*mA*mG; antisense) [[CDKN2B-AS1]613]			6.73 fold	
